Reference: patent US20240398805A1, “QUINAZOLINE DERIVED COMPOUNDS AS EGFR INHIBITORS AND THEIR USES THEREOF” (ACCUTAR BIOTECHNOLOGY INC., priority 2021, published 2024)

Key:
Format in all cases: cell-based
A431 cells = assay: Cell growth inhibition (CellTiter-Glo, 3 days) in A431; details: Homo sapiens, A-431, 72 h, 3 days after administration
Outline: (§1)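 Growth inhibition was scored by CellTiter-Glo luminescence after 3-day compound exposure at various concentrations. Cells were plated at 5000/well the day before treatment: A431 in DMEM and HCC827 in RPMI, each with 10% FBS.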

[1] = system: HCC827-YVMA cells (human ERBB2 exon20 insertion mutant A775_G776ins YVMA); assay: Cell growth inhibition (CellTiter-Glo, 3 days) in HCC827-YVMA; details: 72 h, 3 days after administration
Outline: (§2)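 HCC827 cells lentivirally transduced with codon-optimized ASV or YVMA insertion mutants were seeded at 5000 cells/well in RPMI with 10% FBS and incubated overnight. Compound was added at various concentrations from a 10× stock in medium, with 3 days' incubation. Viability read by CellTiter-Glo luminescence.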

HCC827 cells = assay: Cell growth inhibition (CellTiter-Glo, 3 days) in HCC827; details: Homo sapiens, 72 h, 3 days after administration
Outline: as §1

[2] = system: HCC827-SVD cells (human EGFR exon 20 insertion mutant D770_N771 insSVD); assay: Cell growth inhibition (CellTiter-Glo, 3 days) in HCC827-SVD; details: 72 h, 3 days after administration
Outline: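 HCC827 cells carrying lentiviral codon-optimized EGFR D770_N771 insSVD, with endogenous EGFR knocked out by CRISPR (single clone), seeded at 5000 cells/well in RPMI with 10% FBS. Viability read by CellTiter-Glo luminescence.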

[3] = system: HCC827-ASV cells (human EGFR exon 20 insertion mutant A769_D770insASV); assay: Cell growth inhibition (CellTiter-Glo, 3 days) in HCC827-ASV; details: 72 h, 3 days after administration
Outline: as §2

Row | Compound | GI50 (A431 cells) | GI50 [1] | GI50 (HCC827 cells) | GI50 [2] | GI50 [3]
1 | C=CC(=O)N1CCC(Nc2cc3c(Nc4ccc(Oc5ccnc(N6CC7C(C6)C7(F)F)c5)cc4F)ncnc3cc2OC)CC1 (stereo not shown) [Example 160, 1-(4-((4-((4-((2-(6,6-difluoro-3-azabicyclo[3.1.0]hexan-3-yl)pyridin-4-yl)oxy)-2-fluorophenyl)amino)-7-methoxyquinazolin-6-yl)amino)piperidin-1-yl)prop-2-en-1-one] | 60 to 100 nM | < 30 nM | 30 to 60 nM | < 30 nM | < 30 nM
2 | C=CC(=O)N1CCC(Nc2cc3c(Nc4ccc(Oc5ccnc(N6CC[C@@H](F)C6)c5)cc4F)ncnc3cc2OC)CC1 [Example 195, (R)-1-(4-((4-((2-fluoro-4-((2-(3-fluoropyrrolidin-1-yl)pyridin-4-yl)oxy)phenyl)amino)-7-methoxyquinazolin-6-yl)amino)piperidin-1-yl)prop-2-en-1-one] | 600 to 1000 nM | < 30 nM | 100 to 300 nM | < 30 nM | < 30 nM
3 | C=CC(=O)N1CCC(Nc2cc3c(Nc4ccc(Oc5ccnc(-c6ccccn6)c5)cc4F)ncnc3cc2OC)CC1 [Example 236, 1-(4-((4-((4-([2,2′-bipyridin]-4-yloxy)-2-fluorophenyl)amino)-7-methoxyquinazolin-6-yl)amino)piperidin-1-yl)prop-2-en-1-one] | ≥ 1000 nM | < 30 nM | 100 to 300 nM | < 30 nM | < 30 nM
4 | C=CC(=O)N1CCC(Nc2cc3c(Nc4ccc(Oc5ccnc(N6C[C@@H]7OCCO[C@@H]7C6)n5)cc4F)ncnc3cc2OC)CC1 [Example 257, 1-(4-((4-((2-fluoro-4-((2-((4aR,7aS)-hexahydro-6H-[1,4]dioxino[2,3-c]pyrrol-6-yl)pyrimidin-4-yl)oxy)phenyl)amino)-7-methoxyquinazolin-6-yl)amino)piperidin-1-yl)prop-2-en-1-one] | 600 to 1000 nM | < 30 nM | 60 to 100 nM | < 30 nM | < 30 nM
5 | C=CC(=O)N1CCC(Nc2cc3c(Nc4ccc(Oc5ccnc(N6CC(O)(C(F)(F)F)C6)c5)cc4F)ncnc3cc2OC)CC1 [Example 206, 1-(4-((4-((2-fluoro-4-((2-(3-hydroxy-3-(trifluoromethyl)azetidin-1-yl)pyridin-4-yl)oxy)phenyl)amino)-7-methoxyquinazolin-6-yl)amino)piperidin-1-yl)prop-2-en-1-one] | 100 to 300 nM | < 30 nM | 60 to 100 nM | < 30 nM | < 30 nM
6 | C=CC(=O)N1CCC(Nc2cc3c(Nc4ccc(Oc5ccnc(N6CC(C(C)(C)O)C6)c5)cc4F)ncnc3cc2OC)CC1 [Example 146, 1-(4-((4-((2-fluoro-4-((2-(3-(2-hydroxypropan-2-yl)azetidin-1-yl)pyridin-4-yl)oxy)phenyl)amino)-7-methoxyquinazolin-6-yl)amino)piperidin-1-yl)prop-2-en-1-one] | ≥ 1000 nM | 100 to 300 nM | 600 to 1000 nM | 60 to 100 nM | 60 to 100 nM
7 | C=CC(=O)N1CCC(Nc2cc3c(Nc4ccc(Oc5ccnc(N6C[C@H]7CCCC[C@H]7C6)c5)cc4F)ncnc3cc2OC)CC1 [Example 241, 1-(4-((4-((2-fluoro-4-((2-((3aR,7aS)-octahydro-2H-isoindol-2-yl)pyridin-4-yl)oxy)phenyl)amino)-7-methoxyquinazolin-6-yl)amino)piperidin-1-yl)prop-2-en-1-one] | 600 to 1000 nM | 60 to 100 nM | < 30 nM | 30 to 60 nM | 60 to 100 nM
8 | C=CC(=O)N1CCC(Nc2cc3c(Nc4ccc(Oc5ccnc(-c6nc(C)no6)c5)cc4F)ncnc3cc2OC)CC1 [Compound 191, 1-(4-((4-((2-fluoro-4-((2-(3-methyl-1,2,4-oxadiazol-5-yl)pyridin-4-yl)oxy)phenyl)amino)-7-methoxyquinazolin-6-yl)amino)piperidin-1-yl)prop-2-en-1-one] | 300 to 600 nM | < 30 nM | 30 to 60 nM | < 30 nM | < 30 nM
